Structures can show the parent of a compound that is named as a salt.
Columns and labels:
Conditions in all cases: 72 h
Calu-3 [1] = assay: drug sensitivity score (DSS) for viability; higher = more toxic; extreme values may be limits of the assay
HepG2 [2] = assay: as above
Caco-2 [3] = assay: as above
U2OS [4] = assay: as above
Vero E6 [5] = assay: as above
Calu-3 [6] = assay: cell viability relative to DMSO; higher = less toxic
HepG2 [7] = assay: as above
Caco-2 [8] = assay: as above
U2OS [9] = assay: as above
Vero E6 [10] = assay: as above
U2OS [11] = assay: relative viability EC50 (midpoint between 100% and the lowest measured viability); higher = less toxic
Vero E6 [12] = assay: as above
HepG2 [13] = assay: as above
Caco-2 [14] = assay: as above

SMILES	drug sensitivity score (Calu-3 [1])	drug sensitivity score (HepG2 [2])	drug sensitivity score (Caco-2 [3])	drug sensitivity score (U2OS [4])	drug sensitivity score (Vero E6 [5])	cell viability (Calu-3 [6]; 1 nM) [%]	cell viability (Calu-3 [6]; 10 nM) [%]	cell viability (Calu-3 [6]; 100 nM) [%]	cell viability (Calu-3 [6]; 1000 nM) [%]	cell viability (Calu-3 [6]; 10000 nM) [%]	cell viability (HepG2 [7]; 1 nM) [%]	cell viability (HepG2 [7]; 10 nM) [%]	cell viability (HepG2 [7]; 100 nM) [%]	cell viability (HepG2 [7]; 1000 nM) [%]	cell viability (HepG2 [7]; 10000 nM) [%]	cell viability (Caco-2 [8]; 1 nM) [%]	cell viability (Caco-2 [8]; 10 nM) [%]	cell viability (Caco-2 [8]; 100 nM) [%]	cell viability (Caco-2 [8]; 1000 nM) [%]	cell viability (Caco-2 [8]; 10000 nM) [%]	cell viability (U2OS [9]; 1 nM) [%]	cell viability (U2OS [9]; 10 nM) [%]	cell viability (U2OS [9]; 100 nM) [%]	cell viability (U2OS [9]; 1000 nM) [%]	cell viability (U2OS [9]; 10000 nM) [%]	cell viability (Vero E6 [10]; 1 nM) [%]	cell viability (Vero E6 [10]; 10 nM) [%]	cell viability (Vero E6 [10]; 100 nM) [%]	cell viability (Vero E6 [10]; 1000 nM) [%]	cell viability (Vero E6 [10]; 10000 nM) [%]	relative viability EC50 (U2OS [11]) [µM]	relative viability EC50 (Vero E6 [12]) [µM]	relative viability EC50 (HepG2 [13]) [µM]	relative viability EC50 (Caco-2 [14]) [µM]
Nc1nc2cc(-c3ccc4ncc(C(=O)N5CCOCC5)n4c3)ccc2o1 [MLN1117]	2.2	2.9	3	1	0.5	94.2	102	104	96.8	64.7	98.1	101	102	96.3	54.5	107	101	107	89.9	66.6	96.4	95.2	106	91.2	84.3	104	106	106	95.1	85.8	> 10	> 10		
O=C(/C=C/c1ccc(O)c2c1[C@H](C(=O)O[C@H](Cc1ccc(O)c(O)c1)C(=O)O)[C@@H](c1ccc(O)c(O)c1)O2)O[C@H](Cc1ccc(O)c(O)c1)C(=O)O [salvianolic-acid-B]		0	0	0	0						101	86.8	107	96.3	98	99.2	97.1	96.6	104	101	94.4	98.2	97.5	101	97.8	96.1	92.9	95.3	91.6	103	> 10	> 10	> 10	> 10
CC(=O)OCC(=O)[C@@]1(O)[C@@H](C)C[C@H]2[C@@H]3CCC4=CC(=O)C=C[C@]4(C)[C@@]3(F)[C@@H](O)C[C@@]21C [betamethasone-acetate]	0	0		0	0																													
Nc1cc2c3ccccc3ccc2c2ccccc12 [6-aminochrysene]	0	3		4.4	0.2																													
Nc1nc(Cl)nc2c1ncn2[C@@H]1O[C@H](CO)[C@@H](O)[C@@H]1F [clofarabine]	6.8	14.1	2.8	4	4	91.4	106	96.2	64.8	54.6	94.1	100	89.2	33.3	39.3	90.2	102	88.8	85.9	71.5	99.9	101	105	79.7	65.5	96.2	91.5	96.6	87.8	55.9			0.192	
COc1cc2c(c(OC)c1OC)-c1ccc(OC)c(=O)cc1[C@@H](NC(C)=O)CC2 [colchicine]		21.2	17.5	23.9	13.2						104	91.2	38	34.8	39.7	97.2	103	45.8	46.1	41.1	104	103	25.3	20	19.2	101	101	96.9	31.1	28.5	0.0407	0.308	0.0241	0.0419
O=C(O)c1cc2occc2[nH]1		0	0	0	0						99.2	104	103	92.6	103	91.3	89	94.2	94.1	94.6	98.6	104	99.5	102	98.7	107	104	102	99.8	101	> 10	> 10	> 10	> 10
CC1(C)S[C@@H]2[C@H](NC(=O)[C@H](N)c3ccccc3)C(=O)N2[C@H]1C(=O)O [ampicillin]	0	0		0	0																													
COc1ccc(C(=O)C2CCN(CC(=O)N(Cc3nc4c(c(=O)[nH]3)COCC4)CC3CC3)CC2)cc1 [NVP-TNKS656]	9.5	0	0	0.3	8.7	95.3	97.3	70.3	68.2	82.7	98.7	106	106	106	93.6	110	96.7	92.9	109	93.3	99	96.7	91.5	88.9	90.6	105	101	83.1	63.1	65.9	> 10		> 10	> 10
CN(C)[C@@H]1C(O)=C(C(N)=O)C(=O)[C@@]2(O)C(O)=C3C(=O)c4c(O)ccc(Cl)c4[C@@](C)(O)[C@H]3C[C@@H]12 [CHLORTETRACYCLINE HYDROCHLORIDE]	0	0		0	0																													
C/C=C(/C)C(=O)O[C@H]1[C@H](OC(C)=O)[C@@]2(CO)C(CC1(C)C)C1=CCC3[C@@]4(C)CCC(O[C@@H]5O[C@H](C(=O)O)[C@@H](O[C@@H]6O[C@H](CO)[C@@H](O)[C@H](O)[C@H]6O)[C@H](O)[C@H]5O[C@@H]5O[C@H](CO)[C@@H](O)[C@H](O)[C@H]5O)[C@](C)(CO)C4CC[C@@]3(C)[C@]1(C)C[C@H]2O.C/C=C(\C)C(=O)O[C@H]1[C@H](OC(C)=O)[C@@]2(CO)C(CC1(C)C)C1=CCC3[C@@]4(C)CCC(O[C@@H]5O[C@H](C(=O)O)[C@@H](O[C@@H]6O[C@H](CO)[C@@H](O)[C@H](O)[C@H]6O)[C@H](O)[C@H]5O[C@@H]5O[C@H](CO)[C@@H](O)[C@H](O)[C@H]5O)[C@](C)(CO)C4CC[C@@]3(C)[C@]1(C)C[C@H]2O (some centres not stated) [escin]	0	3.8		1.5	4.1																													
CN(C)c1ccc2nc3ccc(=[N+](C)C)cc-3sc2c1 [methylene-blue]	6.1	9.2		3	5.1																													
O=C(O)C(=O)O.[NH-][C@@H]1CCCC[C@H]1[NH-].[Pt+2] [oxaliplatin]	0	6		0.1	4.8																													
C[C@]12CC[C@@H]3c4ccc(O)cc4CC[C@H]3[C@@H]1CC[C@@H]2O [estradiol]	0	0		0	0																													
N#Cc1ccc(COC[C@H]2O[C@@H](n3c(NCc4ccc(Cl)c(Cl)c4)nc4c(N)ncnc43)[C@H](O)[C@@H]2O)cc1	4.5	7.2	2.3	2	0	96.9	93.3	99.6	86.2	52.8	94.2	93.4	101	82.5	20.4	94.5	98.9	91.8	101	52.8	95.6	97.9	93.7	97.4	64.9	101	97.8	106	99.9	99.4		> 10	1.66	
COc1ccc(-n2c(SCCCN3C(=O)c4cccc5cccc(c45)C3=O)nnc2-c2ccncc2)cc1 [WIKI4]	4.7	0	1.1	0.2	2.8	96.2	103	92.8	75	71.3	96.3	97.6	93.4	107	100	90.5	109	96	87	95.6	100	109	98.6	95.7	87.3	97.8	101	97.9	91.8	66.8	> 10		> 10	> 10

Reference: the supplement of paper PMC13380429
